Patent US20240158446A1, “CYCLIC COMPOUND HAVING SELECTIVE INHIBITORY ACTION ON KRAS OVER HRAS AND NRAS” (CHUGAI SEIYAKU KABUSHIKI KAISHA, priority 2021, published 2024)

Columns and labels:
[1] = molecular target: GDP-bound NRAS wild-type protein (Homo sapiens, UniProt P01111); assay: Binding to NRAS by surface plasmon resonance (SPR), Single Cycle Kinetics; settings: SPR, GDP-bound NRAS wild-type protein vs GDP-bound KRAS wild-type protein
[2] = molecular target: GDP-bound HRAS wild-type protein (Homo sapiens, UniProt P01112); assay: Binding to HRAS by surface plasmon resonance (SPR), Single Cycle Kinetics; settings: SPR, GDP-bound HRAS wild-type protein vs GDP-bound KRAS wild-type protein
Sequence of GDP-bound HRAS wild-type protein (P01112 whole entry): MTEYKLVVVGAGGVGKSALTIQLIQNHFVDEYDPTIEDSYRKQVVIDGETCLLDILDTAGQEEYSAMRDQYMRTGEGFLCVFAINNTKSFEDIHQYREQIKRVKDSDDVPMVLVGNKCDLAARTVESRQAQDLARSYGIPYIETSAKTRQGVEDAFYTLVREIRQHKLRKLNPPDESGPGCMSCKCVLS

Sequence of GDP-bound NRAS wild-type protein (P01111 whole entry): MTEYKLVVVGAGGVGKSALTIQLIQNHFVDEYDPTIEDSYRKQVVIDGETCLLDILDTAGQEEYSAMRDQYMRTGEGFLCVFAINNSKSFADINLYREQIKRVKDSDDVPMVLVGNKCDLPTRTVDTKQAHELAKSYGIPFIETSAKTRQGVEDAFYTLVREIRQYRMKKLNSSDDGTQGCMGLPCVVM

In the case of `CCC[C@H]1C(=O)N[C@@H]([C@@H](C)CC)C(=O)N(C)CC(=O)N(C)[C@H]2C/C=C\CCN(C2=O)[C@@H](Cc2ccc(C)cc2)C(=O)N(C)CC(=O)N[C@@H](CCc2ccc(C(F)(F)F)c(Cl)c2)C(=O)N2C[C@H](C)C[C@H]2C(=O)NC2(CC(C)(C)C2)C(=O)N(C)[C@@H](C2CCCC2)C(=O)N(C)[C@H](C(=O)N(C)C)CC(=O)N1C` [PP2210], the “NRAS/KRAS (ratio of KD value for NRAS to KD value for KRAS)” value [1] is reported as “A (a compound having 10 or more and less than 20 is denoted as A)” and the “HRAS/KRAS (ratio of KD value for HRAS to KD value for KRAS)” value [2] is reported as “B (a compound having 3 or more and less than 10 is denoted as B)”.

For `CCC[C@@H]1C[C@H]2C(=O)NC3(CC(C)(C)C3)C(=O)N(C)[C@@H](C3CCCC3)C(=O)N(C)[C@H](C(=O)N(C)C)CC(=O)N(C)[C@@H](CCC)C(=O)N[C@@H]([C@@H](C)CC)C(=O)N(C)CC(=O)N(C)[C@H]3C/C=C\CCN(C3=O)[C@@H](Cc3ccc(C)cc3)C(=O)N(C)CC(=O)N[C@@H](CCc3ccc(C(F)(F)F)c(Cl)c3)C(=O)N2C1` [PP2214], the “NRAS/KRAS (ratio of KD value for NRAS to KD value for KRAS)” value [1] was “A (a compound having 10 or more and less than 20 is denoted as A)” and the “HRAS/KRAS (ratio of KD value for HRAS to KD value for KRAS)” value [2] was “A (a compound having 10 or more and less than 20 is denoted as A)”.

With `CCC[C@H]1C(=O)N[C@@H]([C@@H](C)CC)C(=O)N(C)CC(=O)N(C)[C@H]2C/C=C\CCN(C2=O)[C@@H](Cc2ccc(C)cc2)C(=O)N(C)CC(=O)N[C@@H](CCc2cc(F)c(C(F)(F)F)c(F)c2)C(=O)N2C[C@H](CC)C[C@H]2C(=O)NC2(CCCC2)C(=O)N(C)[C@@H](C2CCCC2)C(=O)N(C)[C@H](C(=O)N(C)C)CC(=O)N1C` [PP2216] the “NRAS/KRAS (ratio of KD value for NRAS to KD value for KRAS)” value [1] was “A (a compound having 10 or more and less than 20 is denoted as A)” and the “HRAS/KRAS (ratio of KD value for HRAS to KD value for KRAS)” value [2] was “A (a compound having 10 or more and less than 20 is denoted as A)”.

In the case of `CCCOC[C@H]1C(=O)N[C@@H]([C@@H](C)CC)C(=O)N(C)CC(=O)N(C)[C@H]2C/C=C\CCN(C2=O)[C@@H](Cc2ccc(C)cc2)C(=O)N(C)CC(=O)N[C@@H](CCc2cc(F)c(C(F)(F)F)c(F)c2)C(=O)N2C[C@H](CC)C[C@H]2C(=O)NC2(CCCC2)C(=O)N(C)[C@@H](C2CCCC2)C(=O)N(C)[C@H](C(=O)N(C)C)CC(=O)N1C` [PP2218], the “NRAS/KRAS (ratio of KD value for NRAS to KD value for KRAS)” value [1] is reported as “A (a compound having 10 or more and less than 20 is denoted as A)” and the “HRAS/KRAS (ratio of KD value for HRAS to KD value for KRAS)” value [2] is reported as “A (a compound having 10 or more and less than 20 is denoted as A)”.

With `CCC[C@H]1C(=O)N[C@@H]([C@H](C)CC)C(=O)N(C)CC(=O)N(C)[C@H]2C/C=C\CCN(C2=O)[C@@H](Cc2ccc(C)cc2)C(=O)N(C)CC(=O)N[C@@H](CCc2ccc(C(F)(F)F)c(Cl)c2)C(=O)N2C[C@H](OCC)C[C@H]2C(=O)NC2(CC(C)(C)C2)C(=O)N(C)[C@@H](CC(C)(C)C)C(=O)N(C)[C@H](C(=O)N(C)C)CC(=O)N1C` [PP2219] the “NRAS/KRAS (ratio of KD value for NRAS to KD value for KRAS)” value [1] was “A (a compound having 10 or more and less than 20 is denoted as A)” and the “HRAS/KRAS (ratio of KD value for HRAS to KD value for KRAS)” value [2] was “A (a compound having 10 or more and less than 20 is denoted as A)”.

With `CC[C@@H]1C[C@H]2C(=O)NC3(CCC3)C(=O)N(C)[C@@H](C3CCCC3)C(=O)N(C)[C@H](C(=O)N(C)C)CC(=O)N(C)[C@@H](CC(C)C)C(=O)N[C@@H]([C@@H](C)CC)C(=O)N(C)CC(=O)N(C)[C@H]3C/C=C\CCN(C3=O)[C@@H](Cc3ccc(C)cc3)C(=O)N(C)CC(=O)N[C@@H](CCc3cc(F)c(C(F)(F)F)c(F)c3)C(=O)N2C1` [PP2220] the “NRAS/KRAS (ratio of KD value for NRAS to KD value for KRAS)” value [1] was “A (a compound having 10 or more and less than 20 is denoted as A)” and the “HRAS/KRAS (ratio of KD value for HRAS to KD value for KRAS)” value [2] was “A (a compound having 10 or more and less than 20 is denoted as A)”.

With `CCC[C@H]1C(=O)N[C@@H]([C@H](C)CC)C(=O)N(C)CC(=O)N(C)[C@H]2C/C=C\CCN(C2=O)[C@@H](Cc2ccc(C)cc2)C(=O)N(C)CC(=O)N[C@@H](CCc2ccc(C(F)(F)F)c(Cl)c2)C(=O)N2C[C@H](OCC)C[C@H]2C(=O)NC2(CC(C)(C)C2)C(=O)N(C)[C@@H](C2CCCC2)C(=O)N(C)[C@H](C(=O)N(C)C)CC(=O)N1C` [PP2221] the “NRAS/KRAS (ratio of KD value for NRAS to KD value for KRAS)” value [1] was “A (a compound having 10 or more and less than 20 is denoted as A)” and the “HRAS/KRAS (ratio of KD value for HRAS to KD value for KRAS)” value [2] was “A (a compound having 10 or more and less than 20 is denoted as A)”.

For `CC[C@H](C)[C@@H]1NC(=O)[C@H](CC(C)C)N(C)C(=O)C[C@@H](C(=O)N(C)C)N(C)C(=O)[C@H](C2CCCC2)N(C)C(=O)C2(CC(C)(C)C2)NC(=O)[C@@H]2C[C@@H](C)CN2C(=O)[C@H](CCc2cc(F)c(C(F)(F)F)c(F)c2)NC(=O)CN(C)C(=O)[C@H](Cc2ccc(C)cc2)N2CC/C=C\C[C@@H](C2=O)N(C)C(=O)CN(C)C1=O` [PP2223], the “NRAS/KRAS (ratio of KD value for NRAS to KD value for KRAS)” value [1] was “A (a compound having 10 or more and less than 20 is denoted as A)” and the “HRAS/KRAS (ratio of KD value for HRAS to KD value for KRAS)” value [2] was “A (a compound having 10 or more and less than 20 is denoted as A)”.

In the case of `CCCOC[C@H]1C(=O)N[C@@H]([C@@H](C)CC)C(=O)N(C)CC(=O)N(C)[C@H]2C/C=C\CCN(C2=O)[C@@H](Cc2ccc(C)cc2)C(=O)N(C)CC(=O)N[C@@H](CCc2cc(F)c(C(F)(F)F)c(F)c2)C(=O)N2C[C@H](C)C[C@H]2C(=O)NC2(CCCC2)C(=O)N(C)[C@@H](C2CCCC2)C(=O)N(C)[C@H](C(=O)N(C)C)CC(=O)N1C` [PP2225], the “NRAS/KRAS (ratio of KD value for NRAS to KD value for KRAS)” value [1] is reported as “A (a compound having 10 or more and less than 20 is denoted as A)” and the “HRAS/KRAS (ratio of KD value for HRAS to KD value for KRAS)” value [2] is reported as “A (a compound having 10 or more and less than 20 is denoted as A)”.

`CCC[C@@H]1C[C@H]2C(=O)NC3(CCCC3)C(=O)N(C)[C@@H](C3CCCC3)C(=O)N(C)[C@H](C(=O)N(C)C)CC(=O)N(C)[C@@H](CC)C(=O)N[C@@H]([C@@H](C)CC)C(=O)N(C)CC(=O)N(C)[C@H]3C/C=C\CCN(C3=O)[C@@H](Cc3ccc(C)cc3)C(=O)N(C)CC(=O)N[C@@H](CCc3cc(F)c(C(F)(F)F)c(F)c3)C(=O)N2C1` [PP2227] was tested, and the “NRAS/KRAS (ratio of KD value for NRAS to KD value for KRAS)” value [1] was “A (a compound having 10 or more and less than 20 is denoted as A)” and the “HRAS/KRAS (ratio of KD value for HRAS to KD value for KRAS)” value [2] was “A (a compound having 10 or more and less than 20 is denoted as A)”.

`CCC[C@@H]1C[C@H]2C(=O)NC3(CCC3)C(=O)N(C)[C@@H](C3CCCC3)C(=O)N(C)[C@H](C(=O)N(C)C)CC(=O)N(C)[C@@H](CC)C(=O)N[C@@H]([C@@H](C)CC)C(=O)N(C)CC(=O)N(C)[C@H]3C/C=C\CCN(C3=O)[C@@H](Cc3ccc(C)cc3)C(=O)N(C)CC(=O)N[C@@H](CCc3cc(F)c(C(F)(F)F)c(F)c3)C(=O)N2C1` [PP2233] was tested, and the “NRAS/KRAS (ratio of KD value for NRAS to KD value for KRAS)” value [1] was “A (a compound having 10 or more and less than 20 is denoted as A)” and the “HRAS/KRAS (ratio of KD value for HRAS to KD value for KRAS)” value [2] was “A (a compound having 10 or more and less than 20 is denoted as A)”.

In the case of `CCC[C@H]1C(=O)N[C@@H]([C@@H](C)CC)C(=O)N(C)CC(=O)N(C)[C@H]2C/C=C\CCN(C2=O)[C@@H](Cc2ccc(C)cc2)C(=O)N(C)CC(=O)N[C@@H](CCc2ccc(C(F)(F)F)c(Cl)c2)C(=O)N2C[C@H](CC)C[C@H]2C(=O)NC2(CCC2)C(=O)N(C)[C@@H](C2CCCC2)C(=O)N(C)[C@H](C(=O)N(C)C)CC(=O)N1C` [PP2237], the “NRAS/KRAS (ratio of KD value for NRAS to KD value for KRAS)” value [1] is reported as “A (a compound having 10 or more and less than 20 is denoted as A)” and the “HRAS/KRAS (ratio of KD value for HRAS to KD value for KRAS)” value [2] is reported as “A (a compound having 10 or more and less than 20 is denoted as A)”.

With `CCC[C@H]1C(=O)N[C@@H](C2CCC2)C(=O)N(C)CC(=O)N(C)[C@H]2C/C=C\CCN(C2=O)[C@@H](Cc2ccc(C)cc2)C(=O)N(C)CC(=O)N[C@@H](CCc2ccc(C(F)(F)F)c(F)c2)C(=O)N2C[C@H](OCC)C[C@H]2C(=O)NC2(CC(C)(C)C2)C(=O)N(C)[C@@H](C2CCC2)C(=O)N(C)[C@H](C(=O)N(C)C)CC(=O)N1C` [PP2242] the “NRAS/KRAS (ratio of KD value for NRAS to KD value for KRAS)” value [1] was “A (a compound having 10 or more and less than 20 is denoted as A)” and the “HRAS/KRAS (ratio of KD value for HRAS to KD value for KRAS)” value [2] was “A (a compound having 10 or more and less than 20 is denoted as A)”.

`CCO[C@@H]1C[C@H]2C(=O)NC3(CCC3)C(=O)N(C)[C@@H](C3CCCC3)C(=O)N(C)[C@H](C(=O)N(C)CC)CC(=O)N(C)[C@H]3CCCCCCc4ccc(cc4)C[C@@H](C(=O)N(C)CC(=O)N[C@@H](CCc4ccc(C(F)(F)F)c(OC)c4)C(=O)N2C1)N1CC/C=C\C[C@@H](C1=O)N(C)C(=O)CN(C)C(=O)[C@H]([C@@H](C)CC)NC3=O` [PP2263] was tested, and the “NRAS/KRAS (ratio of KD value for NRAS to KD value for KRAS)” value [1] was “A (a compound having 10 or more and less than 20 is denoted as A)” and the “HRAS/KRAS (ratio of KD value for HRAS to KD value for KRAS)” value [2] was “A (a compound having 10 or more and less than 20 is denoted as A)”.

For `CCOC[C@H]1C(=O)N[C@@H]([C@@H](C)CC)C(=O)N(C2CC2)CC(=O)N(C)[C@H]2C/C=C\CCN(C2=O)[C@@H](Cc2ccc(C(F)(F)F)cc2)C(=O)N(C)CC(=O)N[C@@H](CCc2ccc(C(F)(F)F)c(OC)c2)C(=O)N2C[C@H](OCC)C[C@H]2C(=O)N(C)C2(CCC2)C(=O)N(C)[C@@H](C(CC)CC)C(=O)N(C)[C@H](C(=O)N(C)C)CC(=O)N1C` [PP2315], the “NRAS/KRAS (ratio of KD value for NRAS to KD value for KRAS)” value [1] was “A (a compound having 10 or more and less than 20 is denoted as A)” and the “HRAS/KRAS (ratio of KD value for HRAS to KD value for KRAS)” value [2] was “A (a compound having 10 or more and less than 20 is denoted as A)”.

`CCCOC[C@H]1C(=O)N[C@@H]([C@@H](C)CC)C(=O)N(C2CC2)CC(=O)N(C)[C@H]2C/C=C\CCN(C2=O)[C@@H](Cc2ccc(C(F)(F)F)cc2)C(=O)N(C)CC(=O)N[C@@H](CCc2ccc(C(F)(F)F)c(OC)c2)C(=O)N2C[C@H](OCC)C[C@H]2C(=O)N(C)C2(CCC2)C(=O)N(C)[C@@H](C2CCCC2)C(=O)N(C)[C@H](C(=O)N(C)C)CC(=O)N1C` [PP2318] was tested, and the “NRAS/KRAS (ratio of KD value for NRAS to KD value for KRAS)” value [1] was “A (a compound having 10 or more and less than 20 is denoted as A)” and the “HRAS/KRAS (ratio of KD value for HRAS to KD value for KRAS)” value [2] was “A (a compound having 10 or more and less than 20 is denoted as A)”.
